Laboratory results: patent publication US20030134859A1 (SANKYO COMPANY, LIMITED, priority 2000, published 2003)
Where a name gives a salt, the structure may show the parent alone.

What was measured:
[1] = tested on: Mouse preadipocyte strain 3T3-L1; experiment: Inhibition of differentiation as an indication of acetic acid uptake; type: cell-based; conditions: Mus musculus, 3T3-L1, 0.1 μM test substance, control (0.01% dimethylsulfoxide) = 100%, read-out: Rate of Uptake (%) of [2-14C] acetic acid
Protocol: As the basal medium, Dulbecco's modified Eagle's (DEM) medium (NISSUI PHARMACEUTICAL CO., LTD) was used. […] All culturing in the present Test Example was carried out in a CO2 incubator at 37° C. and 10% CO2 concentration.
The successively cultured 3T3-L1 cells were inoculated in a Biocoat Collagen I 96-well white/clear plate (Becton Dickinson and Co.) at a concentration of 4,900 cells/well, and were cultured in the basal medium containing added 10% (v/v) inactivated bovine fetal serum (FBS) for 10 days.
The medium was replaced with a differentiation-inducing medium in which inactivated FBS (final concentration: 5%), insulin (Sigma-Aldrich Japan K. K., final concentration: 10 μg/mL), isobutyl methyl xanthine (Aldrich K. K., final concentration: 0.5 mM) and dexamethazone (final concentration: 1 μM) were added so as to be at the final concentrations indicated in the parentheses. The cells were divided in the following 2 groups and were cultured for 4 days; 1) in the presence of 0.01% (v/v) dimethylsulfoxide, and 2) in the presence of 0.01% (v/v) dimethylsulfoxide in which was dissolved 1 mM of the test substance (final concentration of 0.1 μM). Then, the medium was further replaced with a maintenance medium in which inactivated […] and insulin were added to the base medium so as to be at final concentrations of 5% and 100 ng/mL, respectively, and the cells were cultured for 2 days.
The inhibitory activity of the test compound against cell differentiation was assayed by using uptake of [2-^14C] acetic acid into the cultured cells as an indicator. […] Then the cells were further incubated with the newly prepared medium for 1 hr. After washing the well with PBS (−), the cells were dried. To these wells, 100 μL/well of a scintillation cocktail (Hewlett-Packard Co., MICROSCINT-20 PACKARD) were added and their radioactivities were determined with a Packard TopCont microplate Scintillation Counter (Hewlett-Packard Co., PACKARD) and the uptake level of [2-^14C] acetic acid into the cultured cell was calculated.
On the basis of the calculated uptake level of [2-^14C] acetic acid into the cultured cells, the relative uptake level of [2-^14C] acetic acid in the group treated with the test compound was calculated against the uptake level of [2-^14C] acetic acid in the presence of 0.01% (v/v) dimethylsulfoxide solution described in 1) (100%).
Value=Uptake Level (cpm) of [2-^14C] Acetic Acid in the Presence of the Test Substance
Control=Uptake Level (cpm) of [2-^14C] Acetic Acid in the Control Group (0.01% dimethylsulfoxide)
Uptake Rate (%) of [2-^14C] Acetic Acid=100×[Value]/[Control]

Rat white adipocytes = experiment: Stimulation of differentiation of the adipocytes (Oil Red O); type: cell-based; conditions: 100 nM test compound, 5 days, Oil Red O ABS550, control = 100%, blank = 0%, Table 7; for activity at 0.1 µM: Rattus norvegicus, Adipocyte, 120 h, read-out: Rate of Differentiation (%)
Protocol: Rat white adipocytes contained in the white adipocyte culture kit, which was purchased from HOKUDO, were used. Mediums for proliferation and for differentiation-inducing, which were contained in the white adipocyte culture kit purchased from HOKUDO, were used.
Immediately after arrival of the purchased cells, all medium for transportation was discarded and replaced with 5 ml of proliferation medium (/25 cm^2-flask) and the cells were cultured for one day. Then, a cell suspension was prepared with proliferation medium so as to be 83,000 cells/mL, and the suspension was plated into a type I 96-well collagen-coated microplate (SUMITOMO BAKELITE CO., ltd.) so as to be 5,000 cells/well (60 μL/well). For the blank, the proliferation medium without the cells was plated into the well (blank well) of each plate.
Further, 1) in the group treated with the test compound, 3 μL/well of a solution in which the test compound (100 μM) was dissolved in DMSO solution and diluted with differentiation-inducing medium by 20 times (final concentration of the test compound: 100 nM, final concentration of DMSO: 0.1% (v/v)) were added to the well where the cells were plated. 2) In the control group, 3 μL/well of DMSO solution that was diluted with differentiation-inducing medium by 20 times (final concentration of DMSO: 0.1% (v/v)) were added to the well where the cells were plated. Further, 3) in the blank group, 3 μL/well of DMSO solution that was diluted with differentiation-inducing medium by 20 times (final concentration: 0.1% (v/v)) were added to the blank well.
After culturing for 5 days, all differentiation-inducing medium was discarded and replaced with 60 μL of 10% (v/v) of formaldehyde solution (for fixation) in each well and the cells were kept stationary for 20 min at room temperature. After this the fixative solution was discarded and replaced with 60 μL of 0.2% (v/v) Triton X (Sigma-Aldrich Japan K. K.) solution in each well and kept stationary for 5 min at the room temperature. Then all Triton X solution was discarded and replaced with 60 μL of 60% (v/v) isopropanol solution containing dissolved Oil Red 0 (Sigma-Aldrich Japan K. K.) so as to be 0.3%, which was adipose tissue staining solution, and the well was left stationary for 10 min at room temperature. After the adipose tissue staining solution was discarded, the well was washed twice with 60 μL of 60% (v/v) isopropanol solution. Then, 100 μL of the DMSO were added to each well and stirred for 5 min at room temperature. The absorbance was measured at 550 nm (ABS550) with a multi-plate reader (LabsSystems), and the stained amount by Oil Red 0 was determined. The measured level at ABS550 in the control group was defined as 100%, while the level at ABS550 in the blank group was defined as 0%. The differentiation rate (%) of the adipocytes treated with the test compound was calculated.

leptin production = experiment: Enhancing activity for leptin production in adipocytes (ELISA); type: cell-based, rat; conditions: leptin concentration as % of control group; for Facilitating activity to produce leptin: 24 hr
Summary of the method: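 Leptin release, quantified by rat leptin ELISA, expressed as percent of 0.1% DMSO control after 24 h at 37 °C. Cells were floating adipocytes isolated by collagenase digestion of epididymal fat from male 6-week Wistar Imamichi rats; compound tested at 1 nM–1 µM final.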

[2] = Rattus norvegicus, Adipocyte, 24 h, read-out: Facilitating activity to produce leptin
[3] = Rattus norvegicus, Adipocyte, 24 h, 100 nm, read-out: Facilitating activity to produce leptin

What does the source list for `N#Cc1ccccc1NC(=O)c1cc([N+](=O)[O-])ccc1Cl` [Example 22, N-(2-Cyanophenyl)-(2-chloro-5-nitrophenyl)carboxamide]?
activity at 0.1 µM [1]: 51.5%; activity at 0.1 µM (Rat white adipocytes): 127%

`CCNc1ccc(NC(=O)c2cc([N+](=O)[O-])ccc2Cl)cc1` [Example 115, N-(4-Ethylaminophenyl)-(2-chloro-5-nitrophenyl)carboxamide mono-hydrochloride] was tested. Which activity at 0.1 µM (Rat white adipocytes) did it give?
The activity at 0.1 µM was 147%.

How did the activity at 0.1 µM (Rat white adipocytes) turn out when `CCN(CC)c1ccc(NC(=O)c2cc([N+](=O)[O-])ccc2Cl)c(C)c1` [Example 131, N-[4-(Diethylamino)-2-methylphenyl]-(2-chloro-5-nitrophenyl)carboxamide] was run?
Its activity at 0.1 µM is 132%.

For `O=C(Nc1ccc(N2CCNCC2)cc1)c1cc([N+](=O)[O-])ccc1Cl` [Example 133, N-[4-(Piperazin-1-yl)phenyl]-(2-chloro-5-nitrophenyl)carboxamide], which activity at 0.1 µM (Rat white adipocytes) is on record?
Its activity at 0.1 µM is 141%.

With `CCCCCCNc1ccc(NC(=O)c2cc([N+](=O)[O-])ccc2Cl)cc1` [Example 137, N-(4-n-Hexylaminophenyl)-(2-chloro-5-nitrophenyl)carboxamide] as the compound, how does the activity at 0.1 µM (Rat white adipocytes) read?
The activity at 0.1 µM was 150%.

Which activity at 1 µM (leptin production; [2]) does the source give for `CC(C)(C)c1cc(C(=O)Nc2cccc(NC(=O)c3cc([N+](=O)[O-])ccc3Cl)c2)cc(C(C)(C)C)c1O` [Example 162, N-[3-[(3,5-di-tert-Butyl-4-hydroxybenzoyl)amino]phenyl]-(2-chloro-5-nitrophenyl)carboxamide] here?
Its activity at 1 µM is 111%.

What about the activity at 0.1 µM (Rat white adipocytes) of the same compound?
Its activity at 0.1 µM is 170%.

`CC(C)(C)OC(=O)N1CCN(C(=O)c2ccc(NC(=O)c3cc([N+](=O)[O-])ccc3Cl)cc2)CC1` [Example 166, N-[4-(4-tert-Butoxycarbonylpiperazin-1-ylcarbonyl)phenyl]-(2-chloro-5-nitrophenyl)carboxamide] was tested. Which activity at 1 µM (leptin production; [2]) did it give?
Its activity at 1 µM is 114%.

What about the activity at 0.1 µM (leptin production; [3]) of the same compound?
The activity at 0.1 µM was 115%.

And the activity at 0.1 µM (Rat white adipocytes)?
Its activity at 0.1 µM is 115%.

Which activity at 0.1 µM (Rat white adipocytes) does the source give for `CCOC(=O)Cc1ccc(NC(=O)c2cc([N+](=O)[O-])ccc2Cl)cc1` [Example 168, Ethyl [4-(2-chloro-5-nitrobenzoylamino)phenyl]acetate] here?
Its activity at 0.1 µM is 140%.

With `Cl.NCCc1ccc(NC(=O)c2cc([N+](=O)[O-])ccc2Cl)cc1` [Example 169, N-[4-(2-Aminoethyl)phenyl]-(2-chloro-5-nitrophenyl)carboxamide Hydrochloride 0.2 Hydrate] as the compound, how does the “Facilitating activity to produce leptin” value (leptin production; 100 nm) read?
The value was 111.6%.

And the “Rate of Differentiation (%)” value (Rat white adipocytes)?
Its value is 114.9%.

What does the source list for `O=C(O)Cc1ccc(NC(=O)c2cc([N+](=O)[O-])ccc2Cl)cc1` [Example 170, [4-(2-Chloro-5-nitrobenzoylamino)phenyl]acetic Acid]?
activity at 0.1 µM (leptin production; [3]): 117%; activity at 0.1 µM (Rat white adipocytes): 115%

For `CCN(CC)c1ccc(NC(=O)c2cc([N+](=O)[O-])ccc2Cl)cc1` [Example 172, N-(4-Diethylaminophenyl)-(2-chloro-5-nitrophenyl)carboxamide], which activity at 0.1 µM (Rat white adipocytes) is on record?
Its activity at 0.1 µM is 120%.

Which activity at 1 µM (leptin production; [2]) does the source give for `CN(C)c1ccc(NC(=O)c2cc([N+](=O)[O-])ccc2Cl)cc1` [Example 173, N-(4-Dimethylaminophenyl)-(2-chloro-5-nitrophenyl)carboxamide] here?
Its activity at 1 µM is 119%.

And the activity at 0.001 µM (leptin production; Rattus norvegicus, Adipocyte, 24 h, 1 nm, read-out: Facilitating activity to produce leptin)?
Its activity at 0.001 µM is 112%.

What about the activity at 0.1 µM (Rat white adipocytes) of the same compound?
Its activity at 0.1 µM is 134%.

With `CC(=O)N1CCN(c2ccc(NC(=O)c3cc([N+](=O)[O-])ccc3Cl)cc2)CC1` [Example 183, N-[4-(4-Acetylpiperazin-1-yl)phenyl]-(2-chloro-5-nitrophenyl)carboxamide] as the compound, how does the activity at 0.1 µM (leptin production; [3]) read?
Its activity at 0.1 µM is 112%.

What about the activity at 0.1 µM (Rat white adipocytes) of the same compound?
The activity at 0.1 µM was 118%.

Which “Facilitating activity to produce leptin” value (leptin production; 10 nm) does the source give for `O=C(Nc1ccc(S(=O)(=O)Nc2ccc(-n3ccnc3)cc2)cc1)c1cc([N+](=O)[O-])ccc1Cl` [Example 187, N-[[4-[4-(Imidazol-1-yl)phenyl]aminosulfonyl]phenyl]-(2-chloro-5-nitrophenyl)carboxamide] here?
The value was 113.3%.

And the “Facilitating activity to produce leptin” value (leptin production; 100 nm)?
Its value is 126.2%.

And the “Rate of Differentiation (%)” value (Rat white adipocytes)?
Its value is 112.7%.

Which activity at 0.1 µM (Rat white adipocytes) does the source give for `Nc1ccc2nc(NC(=O)c3cc([N+](=O)[O-])ccc3Cl)sc2c1` [Example 261, N-(6-Aminobenzothiazol-2-yl]-(2-chloro-5-nitrophenyl)carboxamide] here?
Its activity at 0.1 µM is 129%.

With `CS(=O)(=O)Nc1ccc(-c2csc(NC(=O)c3cc([N+](=O)[O-])ccc3Cl)n2)cc1` [Example 262, N-[4-(4-Methanesulfonylaminophenyl)thiazol-2-yl]-(2-chloro-5-nitrophenyl)carboxamide] as the compound, how does the activity at 0.1 µM (Rat white adipocytes) read?
Its activity at 0.1 µM is 167%.

`CC(=O)Nc1ccc(-c2csc(NC(=O)c3cc([N+](=O)[O-])ccc3Cl)n2)cc1` [Example 263, N-[4-(4-Acetylaminophenyl)thiazol-2-yl]-(2-chloro-5—nitrophenyl)carboxamide] was tested. Which activity at 0.1 µM (Rat white adipocytes) did it give?
Its activity at 0.1 µM is 154%.

`NC(=O)N1CCN(c2ccc(NC(=O)c3cc([N+](=O)[O-])ccc3Cl)cc2)CC1` [Example 264, N-[4-[(4-Aminocarbonyl)piperazin-1-yl]phenyl]-(2-chloro-5-nitrophenyl)carboxamide] was tested. Which “Rate of Differentiation (%)” value (Rat white adipocytes) did it give?
Its value is 111.5%.

With `CC(=O)Nc1cccc(-c2csc(NC(=O)c3cc([N+](=O)[O-])ccc3Cl)n2)c1` [Example 277, N-[4-(3-Acetylaminophenyl)thiazol-2-yl]-(2-chloro-5-nitrophenyl)carboxamide] as the compound, how does the activity at 0.1 µM (Rat white adipocytes) read?
Its activity at 0.1 µM is 123%.

Which activity at 0.1 µM (Rat white adipocytes) does the source give for `CC(=O)Nc1ccc2nc(NC(=O)c3cc([N+](=O)[O-])ccc3Cl)sc2c1` [Example 280, N-(6-Acetylaminobenzothiazol-2-yl)-(2-chloro-5-nitrophenyl)carboxamide] here?
The activity at 0.1 µM was 190%.

Which activity at 0.1 µM (Rat white adipocytes) does the source give for `NC(=O)Nc1ccc2nc(NC(=O)c3cc([N+](=O)[O-])ccc3Cl)sc2c1` [Example 281, N-(6-Aminocarbonylaminobenzothiazol-2-yl)-(2-chloro-5-nitrophenyl)carboxamide] here?
Its activity at 0.1 µM is 200%.
